Measured values taken from paper PMC9304282, “Relating Conformational Equilibria to Conformer‐Specific Lipophilicities: New Opportunities in Drug Discovery” (Angewandte Chemie (International Ed. in English), 2021).
Where “and” joins values, the source holds several entries; their conditions need not be identical. Identical values can stand only once. Like-named read-outs stand apart in the source and are kept apart here.

Assays:
[1] = amide rotamer ratio (K value) in octanol and water phase by 19F NMR integration; assay type: physicochemical; settings: experimental
Excerpt: In the closed equilibrium system shown in Figure 2A, the ratio of the p‐values equates to the ratio of the K‐values ((Eq. 7), Figure 2C), so that the difference in logp values equals the log of the K‐value ratio (Eq. 8). In other words: the lipophilicity difference between two conformers is directly related to the change between their equilibrium concentration ratios in water and octanol. The K‐values can be obtained through integration measurement (Eq. 8).
The ρ and K determinations require assignment of each fluorine signal in each phase to a particular rotamer, as it was observed that the relative position of cis‐and trans‐amide rotamer resonances in the ^19F NMR spectrum in octanol was not always the same as that in water. Conformer signal assignment in the water phase is easily accomplished by a control experiment using (octanol‐saturated) D2O by standard NOESY analysis combined with peak integration (see Supporting Information). As perdeuterated octanol is very expensive, this was experimentally non‐trivial for cases when the huge octanol solvent R‐CH 2OH signal and its ^13C satellites obscure proton resonances that are required for rotamer assignment. Solvent suppression techniques are impractical, and skew the integration ratio. We therefore introduced 1,1‐dideuteriooctanol (C7H15CD2OH), which considerably facilitated rotamer assignment. It is prepared on large scale by a modified Bouveault–Blanc reduction[20] of cheap methyl octanoate with EtOD as deuterium source (see Supporting Information).
(§1) Linclau et al – supporting information 21
(§2) 4.3 Detailed experimental data for the logP determinations (roct and rwat values for each
(§3) 4.3.1 Standard NMR settings
(§4) Standard NMR parameter setting: SW, 300 ppm; centered O1P; NS 64; D1 30 sec (octanol sample), D1 60 sec (water sample). Any change from standard setting was described for each compound. Unless specified otherwise 2,2,2-trifluoroethanol (logP: +0.36) was used as the reference compound. […]
(§5) Reference - 1-Fluoropropan-2-ol
(§6) Compound Experimental ρ /ρ LogP Average Error
(§7) (octanol/water) oct wat LogP
(§8) Ratio of E:Z-rotamers, and K value:
(§9) Octanol phase Water phase
(§10) Conformation ρ /ρ LogP Average Error

[2] = logP and conformer-specific logp determination by 19F NMR (octanol/water partitioning); assay type: physicochemical; settings: for logP: n-octanol/water, octanol/water, 19F NMR
Excerpt: The principle of the strategy for logp optimization, and of the direct logp measurement, is illustrated for amide rotamers (Figure 2) in slow exchange in solution, where each rotamer signal can be integrated directly. This constitutes a system with four coupled equilibria of conformers between (refers to p) and within (refers to K) the two phases (Figure 2A). Our lipophilicity measurement procedure[18] involves acquiring a ^19F NMR spectrum of each phase after phase separation (Figure 2B), and measuring integration relative to an added internal reference. Three peaks are observed: one corresponding to the reference, and two corresponding to each amide rotamer. A ρ‐value for a given rotamer in a given phase is defined as the integration ratio of the rotamer signal and that of the reference (Eq. 5). Through taking the ratio of the ρ‐values of a rotamer, Equation 6 can be obtained,[18] showing that its logp equals the known logP of the reference plus the log of the ratio of its ρ‐values. The overall logP of the amide is then determined by using the integration sum of its rotamer signals using the same equation.[18]
Linclau et al – supporting information 8
3 The logP determination by 19F NMR
Lipophilicities were determined using a previously published protocol:[1] to a 10 mL pear-shaped flask was added the compound (1.0 - 10 mg) for logP determination, the reference compound (1.0 - 10 mg, with known logP value, e.g., 2,2,2-trifluoroethanol, logP: +0.36), water (2 mL) and n-octanol (2 mL). The resulting biphasic mixture was stirred (at 600 rpm) for 2 h at 25 °C, and then left without stirring for 16 h at 25 °C to allow phase separation. An aliquot of 0.5 mL was taken from each phase using 1 mL syringes with long needles and added to two separate NMR tubes. A deuterated NMR solvent (0.1 mL, e.g., acetone-d6), or a capillary tube containing deuterated NMR solvent, was added to the NMR tubes to enable signal locking.
Because of the volatility of the used compounds, the NMR tubes were sealed using a blowtorch. For NMR samples with directly added deuterated solvent, the tubes were inverted 20 times for mixing. For 19F{1H} NMR experiments, NMR parameters were set as follows: D1 30 sec for the octanol sample, D1 60 sec for the water sample; and O1P centered between two diagnostic fluorine peaks. If needed, an increased number of transients (NS) and/or narrower spectral window (SW) for a good S/N ratio (typically >300) was applied.
After NMR data processing, integration ratios ρoct and ρaq (ρoct is defined as the integration ratio between the compound and the reference compound in the octanol sample; likewise for ρaq) were obtained, and used in the equation (logPX = logPref + log(ρoct/ρaq)) to obtain the logP value of the compound. The logP measurement of each compound was run in triplicate. LogP values of non-fluorinated compounds were taken from the literature.
The standard deviation (σ) was calculated using the formula: […]
Where xi are the individual estimated logP values and x̅ is the mean average.
as §1, §2, §3, §4, §5, §6, §7, §8, §9, §10

[3] = difference between E and Z rotamer logp
[4] = unrounded mean, read-out: logP, mean as printed in column Error (±σ)
[5] = unrounded mean, read-out: logp E rotamer, mean as printed in column Error (±σ)
[6] = unrounded mean, read-out: logp Z rotamer, mean as printed in column Error (±σ)
[7] = 25 °C, sum of rotamer signals, read-out: logP (macroscopic lipophilicity, average)
[8] = difference between trans and cis rotamer logp
[9] = unrounded mean, read-out: logp cis rotamer, mean as printed in column Error (±σ)
[10] = unrounded mean, read-out: logp trans rotamer, mean as printed in column Error (±σ)

Row | KE/Z oct (ratio of E:Z rotamers) ([1]; octanol phase) | Ratio Z/E (K value in parentheses) ([1]; octanol phase) | KE/Z wat (ratio of E:Z rotamers) ([1]; water phase) | Ratio Z/E (K value in parentheses) ([1]; water phase) | Δlogp [2, 3] | logP [2, 4] | logP [2, 5] | logP [2, 6] | logP [2, 7] | Kt/c oct (ratio of trans/cis rotamers) ([1]; octanol phase) | Ratio c/t ([1]; octanol phase) | Kt/c wat (ratio of trans/cis rotamers) ([1]; water phase) | Ratio c/t ([1]; water phase) | Δlogp [2, 8] | logP [2, 9] | logP [2, 10] | logP ([2]; cis amide rotamer, read-out: logp (cis)-rotamer (conformer-specific, average)) | SMILES
1 | 0.72 | 1.4 and 1.39 | 0.84 | 1.2 and 1.19 | 0.06 | -0.117 | -0.153 | -0.089 | -0.12 |  |  |  |  |  |  |  |  | CC(=O)N1CCC(F)(F)C1 [compound 3, N-Acetyl-3,3-difluoropyrrolidine]
2 | 0.75 | 1.33 | 0.86 | 1.16 | 0.06 | -0.568 | -0.602 | -0.538 | -0.57 |  |  |  |  |  |  |  |  | CC(=O)N1CCC(F)C1 (stereo not shown) [compound 2, N-Acetyl-3-fluoropyrrolidine]
3 | 1.17 | 0.85 | 0.73 | 1.37 | -0.21 | 0.272 | 0.378 | 0.174 | 0.27 |  |  |  |  |  |  |  |  | CC(=O)N1CCCC(F)(F)C1 [compound 5, N-Acetyl-3,3-difluoropiperidine]
4 |  |  |  |  |  | -0.605 |  |  | -0.6 | 5.29 | 0.19 | 6.49 | 0.15 | 0.09 | -0.529 | -0.618 |  | COC(=O)[C@@H]1C[C@@H](F)CN1C(C)=O [6a, N-acetyl-4R-FPro-OMe]
5 |  |  |  |  |  | -1.16 |  |  | -1.16 | 8.29 | 0.12 | 4.44 | 0.23 | -0.27 | -1.39 | -1.12 | -1.39 | CC(=O)N1C[C@H](F)C[C@H]1C(=O)N(C)C [6b, N-acetyl-(2S,4R)-4-fluoroproline dimethyl amide]
6 |  |  |  |  |  | -0.888 |  |  | -0.89 | 4.76 | 0.21 | 3.68 | 0.27 | -0.11 | -0.978 | -0.866 |  | CC(=O)N1CC(F)(F)C[C@H]1C(=O)N(C)C [7b, N-Acetyl-4,4-F2Pro-NMe2]
7 | 1.43 | 0.70 | 0.95 | 1.05 | -0.19 | -0.1 | -0.015 | -0.198 | -0.1 |  |  |  |  |  |  |  |  | CC(=O)N1CCCC(F)C1 (stereo not shown) [compound 4, N-Acetyl-3-fluoropiperidine]
8 |  |  |  |  |  | -0.196 |  |  | -0.2 | 2.09 |  | 3.48 |  |  | -0.035 | -0.256 |  | COC(=O)[C@@H]1CC(F)(F)CN1C(C)=O [7a, N-Acetyl-4,4-F2Pro-OMe]
